Experimental data reported in patent publication US20230279002A1, “Polymorphs of Crystalline Forms of 3,10-dimethoxy-5,8,13,13a-tetrahydro-6H-isoquinolino[3,2-a]isoquinolin-9-yl 3-fluorobenzenesulfonate and Salts Thereof” (CVI Pharmaceuticals Limited, priority 2020, published 2023).
Structures can show the parent of a compound that is named as a salt.

Assays:
[1] = Solid stability at 40° C./0% RH (closed) and 40° C./75% RH (open), HPLC; type: physicochemical; details: for 0 day % remaining / 5 day % remaining / 10 day % remaining: solid
Experimental: Solid stability: 5 mg of 2a was weighed into scintillation vials sealed properly and stored at 40° C./0% RH(closed), 40° C./75% RH(open) under dark conditions to avoid the effect of light on stability. Samples were collected at day 0, 5 and 10 and analyzed by HPLC.
Solid stability: 5 mg of compound was weighed into vials sealed properly and stored at 40° C./0% RH (closed), 40° C./75% RH (open) under dark conditions to avoid the effect of light. Samples were analyzed by HPLC at days 0, 7, and 21.
Solid stability of compound 1a: 5 mg compound were accurately weighed into scintillation vials sealed properly and stored at 40° C./0% RH(closed), 40° C./75% RH(open) under dark condition to avoid the effect of light on stability. Samples should be collected at day 0, 5 and 10 days and analyzed by HPLC.

[2] = Long term stability at 30° C./65% RH; type: physicochemical
serum PCSK9 = assay: Double-blind, randomized phase 1a study in healthy volunteers; type: in vivo, human; details: 10 days oral 300 mg QD, compared to baseline
Source text: (§1) Compound 1a has undergone a double-blind, randomized phase 1a study conducted in healthy volunteers. […] Currently, a phase 2 POC trial is underway in China in patients with hypercholesterolemia.

[3] = test system: serum LDL-C, TC, Apo B, and PCSK9; assay: Proof-of-mechanism phase 1b study in subjects with elevated LDL-C; type: in vivo, human; details: 28 days, compared with placebo cohort
Source text: as §1

[4] = Phase 1 studies, safety and tolerability in healthy volunteers and hyperlipidemic subjects; type: in vivo, human
Source text: as §1

[5] = TGA (Thermal Gravimetric Analysis) weight loss; type: physicochemical
Experimental: TGA (Thermal Gravimetric Analysis): Samples of compounds (4˜6 mg) were weighed into the pan, and heated under nitrogen purge using a ramp rate of 20° C./min over the range of 30° C.˜350° C.

[6] = Solubility of salts in water, SGF and FaSSIF at 25° C. for 24 hours (HPLC)
Experimental: (§2) About 5 mg of seven kinds of salts were weighed into each vial, and 2 mL of medium was added, respectively. The medium included water, SGF and FaSSIF. All samples were stirred at 25° C. for 24 hours.

physchem = details: 25 °C, thermodynamic from solid, Solubility (mg/mL)
Experimental: as §2

[7] = Medium: FaSSIF, 25° C., stirred 24 hours, HPLC
[8] = Medium: SGF, 25° C., stirred 24 hours, HPLC
[9] = Medium: Water, 25° C., stirred 24 hours, HPLC

COc1ccc2c(c1)CCN1Cc3c(ccc(OC)c3OS(=O)(=O)c3cccc(F)c3)C[C@H]21 [Compound 1a, 3,10-dimethoxy-5,8,13,13a-tetrahydro-6H-isoquinolino[3,2-a]isoquinolin-9-yl 3-fluorobenzenesulfonate]
Solid-state stability (HPLC) ([1]; 40° C./0% RH (closed) and 40° C./75% RH (open), dark, up to 10 days): substantially stable
0 day % remaining ([1]; 40° C. (0% RH, closed)): 99.65%
5 day % remaining ([1]; 40° C. (0% RH, closed)): 101.65%
10 day % remaining ([1]; 40° C. (0% RH, closed)): 100.85%
0 day % remaining ([1]; 40° C./75% RH (open)): 99.65%
5 day % remaining ([1]; 40° C./75% RH (open)): 100.66%
10 day % remaining ([1]; 40° C./75% RH (open)): 101.31%
% Remaining ([2]; 1 month): 100.30%
% Remaining ([2]; 3 month): 100.00%
% Remaining ([2]; 6 month): 99.30%
% Remaining ([2]; 12 month): 99.60%
% Remaining ([2]; 18 month): 99.20%
% Remaining ([2]; 24 month): 99.50%
% Remaining ([2]; 36 month): 100.40%
% Remaining ([2]; time 0): 100.10%
Long term stability ([2]; up to 36 months): stable
serum PCSK9 levels (serum PCSK9): significantly reduced
serum Apo B [3]: significantly reduced
serum LDL-C [3]: significantly reduced
serum PCSK9 levels [3]: significantly reduced
serum TC [3]: significantly reduced
safety profile [4]: favorable safety profile
tolerability [4]: well tolerated

COc1ccc2c(c1)CCN1Cc3c(ccc(OC)c3OS(=O)(=O)c3cccc(F)c3)C[C@H]21 [besylate]
TGA weight loss (from RT to 120° C.) [5]: 0.24%
TGA weight loss (in words) ([5]; room temperature to 120° C.): no significant weight loss
solubility [6, 7]: 1 µg/mL
solubility [6, 8]: 214 µg/mL
solubility [6, 9]: 110 µg/mL

COc1ccc2c(c1)CCN1Cc3c(ccc(OC)c3OS(=O)(=O)c3cccc(F)c3)C[C@H]21 [hydrobromide salt]
TGA weight loss (from RT to 120° C.) [5]: 1.50%
TGA weight loss ([5]; room temperature to 120° C.): 1.50%
solubility [6, 7]: 2 µg/mL
solubility [6, 8]: 156 µg/mL
solubility [6, 9]: 163 µg/mL

COc1ccc2c(c1)CCN1Cc3c(ccc(OC)c3OS(=O)(=O)c3cccc(F)c3)C[C@H]21 [maleate]
TGA weight loss (from RT to 120° C.) [5]: 0.44%
TGA weight loss (in words) ([5]; room temperature to 120° C.): almost no obvious weight loss
solubility [6, 7]: 1 µg/mL
solubility [6, 8]: 221 µg/mL
solubility [6, 9]: 86 µg/mL

COc1ccc2c(c1)CCN1Cc3c(ccc(OC)c3OS(=O)(=O)c3cccc(F)c3)C[C@H]21 [sulfate]
TGA weight loss (from RT to 120° C.) [5]: 0.12%
TGA weight loss (in words) ([5]; room temperature to 120° C.): no weight loss
solubility at 24 h ([6]; FaSSIF, 25 °C, fassif, thermodynamic from solid, Solubility (mg/mL), Medium: FaSSIF, 25° C., stirred 24 hours, HPLC): 2 µg/mL
solubility [6, 8]: 496 µg/mL
solubility [6, 9]: 1370 µg/mL
Solubility compared with other polymorphs (summary) ([6]; summary of the Examples): generally more soluble than other polymorphs
Solubility compared with other salts ([6]; water and SGF, 25° C., 24 hours): better than that of other salts

COc1ccc2c(c1)CCN1Cc3c(ccc(OC)c3OS(=O)(=O)c3cccc(F)c3)C[C@H]21 [tosylate]
TGA weight loss (from RT to 120° C.) [5]: 0.60%
TGA weight loss (in words) ([5]; room temperature to 120° C.): almost no significant weight loss
solubility at 24 h (physchem; fassif): < 1 µg/mL
solubility at 24 h (physchem; simulated gastric fluid): 399 µg/mL
solubility at 24 h (physchem; water): 411 µg/mL

hydrochloride
TGA weight loss (from RT to 120° C.) [5]: 0.09%
